Like-named read-outs stand apart in the source and are kept apart here.
Assays:
HCV = conditions: cited from earlier work
[1] = target: T1, HCV NS5B RdRp genotype 1b (Hepatitis C virus genotype 1b, UniProt Q9WMX2); experiment: Standard HCV NS5B RdRp enzyme assay; type: biochemical; conditions: standard method
T1 construct: The protein was expressed with an 18 amino acid C-terminal truncation to enhance the solubility; made in house; host or cells: E. coli BL21 (DE3), pET21a
Protocol: HCVNS5B RdRp cloning, expression, and purification. The cDNA encoding the NS5B protein of HCV, genotype 1b, was cloned into the pET21a expression vector. The protein was expressed with an 18 amino acid C-terminal truncation to enhance the solubility. The E. coli competent cell line BL21 (DE3) was used for expression of the protein. Cultures were grown at 37° C. for ˜4 hours until the cultures reached an optical density of 2.0 at 600 nm. The cultures were cooled to 20° C. and induced with 1 mM IPTG. Fresh ampicillin was added to a final concentration of 50 μg/ml and the cells were grown overnight at 20° C.
Cell pellets (3 L) were lysed for purification to yield 15-24 mgs of purified NS5B. The lysis buffer consisted of 20 mM Tris-HCl, pH 7.4, 500 mM NaCl, 0.5% triton X-100, 1 mM DTT, 1 mM EDTA, 20% glycerol, 0.5 mg/ml lysozyme, 10 mM MgCl2, 15 ug/ml deoxyribonuclease I, and Complete TM protease inhibitor tablets (Roche). After addition of the lysis buffer, frozen cell pellets were resuspended using a tissue homogenizer. To reduce the viscosity of the sample, aliquots of the lysate were sonicated on ice using a microtip attached to a Branson sonicator. The sonicated lysate was centrifuged at 100,000×g for 1 hr at 4° C. and filtered through a 0.2 μm filter unit (Corning).
The protein was purified using three sequential chromatography steps: Heparin sepharose CL-6B, polyU sepharose 4B, and Hitrap SP sepharose (Pharmacia). The chromatography buffers were identical to the lysis buffer but contained no lysozyme, deoxyribonuclease I, MgCl2 or protease inhibitor and the NaCl concentration of the buffer was adjusted according to the requirements for charging the protein onto the column. Each column was eluted with a NaCl gradient which varied in length from 5-50 column volumes depending on the column type. After the final chromatography step, the resulting purity of the enzyme is >90% based on SDS-PAGE analysis. The enzyme was aliquoted and stored at −80° C.
Standard HCV NS5B RdRp enzyme assay. HCV RdRp genotype Ib assays were run in a final volume of 60 μl in 96 well plates (Costar 3912). The assay buffer is composed of 20 mM Hepes, pH 7.5, 2.5 mM KCl, 2.5 mM MgCl2, 1 mM DTT, 1.6 U RNAse inhibitor (Promega N2515), 0.1 mg/ml BSA (Promega R3961), and 2% glycerol. All compounds were serially diluted (3-fold) in DMSO and diluted further in water such that the final concentration of DMSO in the assay was 2%. HCV RdRp genotype 1b enzyme was used at a final concentration of 28 nM. A polyA template was used at 6 nM, and a biotinylated oligo-dT12 primer was used at 180 nM final concentration. Template was obtained commercially (Amersham 27-4110). Biotinylated primer was prepared by Sigma Genosys. ^3H-UTP was used at 0.6 μCi (0.29 μM total UTP). Reactions were initiated by the addition of enzyme, incubated at 30° C. for 60 min, and stopped by adding 25 μl of 50 mM EDTA containing SPA beads (4 μg/μl, Amersham RPNQ 0007). Plates were read on a Packard Top Count NXT after >1 hr incubation at room temperature.
The IC50 values for compounds were determined using seven different [I]. IC50 values were calculated from the inhibition using the formula y=A+((B−A)/(1+((C/x)^D))). FRET Assay Preparation. To perform the HCV FRET screening assay, 96-well cell culture plates were used. The FRET peptide (Anaspec, Inc.) (Taliani et al., Anal. Biochem. 240:60-67 (1996), hereby incorporated by reference in its entirety) contains a fluorescence donor, EDANS, near one end of the peptide and an acceptor, DABCYL, near the other end. The fluorescence of the peptide is quenched by […] resonance energy transfer (RET) between the donor and the acceptor, but as the NS3 protease cleaves the peptide the products are released from RET quenching and the fluorescence of the donor becomes apparent. […]

HCV replicon = HCV replicon luciferase assay; type: cell-based, Hepatitis C virus
In short: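 Replicon cells, some carrying a Renilla luciferase reporter, were incubated with titrated compound at 37 °C; Alamar blue measured cytotoxicity, followed by a kinetic FRET peptide read (340/490 nm) or Dual-Glo luciferase. Activity was normalized to untreated controls after subtracting background from high-dose protease inhibitor wells; EC50 was the concentration giving 50% signal reduction.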

[2] = Hepatitis C virus, luciferase method, read-out: EC50

T1 sequence (Q9WMX2 2420-2992): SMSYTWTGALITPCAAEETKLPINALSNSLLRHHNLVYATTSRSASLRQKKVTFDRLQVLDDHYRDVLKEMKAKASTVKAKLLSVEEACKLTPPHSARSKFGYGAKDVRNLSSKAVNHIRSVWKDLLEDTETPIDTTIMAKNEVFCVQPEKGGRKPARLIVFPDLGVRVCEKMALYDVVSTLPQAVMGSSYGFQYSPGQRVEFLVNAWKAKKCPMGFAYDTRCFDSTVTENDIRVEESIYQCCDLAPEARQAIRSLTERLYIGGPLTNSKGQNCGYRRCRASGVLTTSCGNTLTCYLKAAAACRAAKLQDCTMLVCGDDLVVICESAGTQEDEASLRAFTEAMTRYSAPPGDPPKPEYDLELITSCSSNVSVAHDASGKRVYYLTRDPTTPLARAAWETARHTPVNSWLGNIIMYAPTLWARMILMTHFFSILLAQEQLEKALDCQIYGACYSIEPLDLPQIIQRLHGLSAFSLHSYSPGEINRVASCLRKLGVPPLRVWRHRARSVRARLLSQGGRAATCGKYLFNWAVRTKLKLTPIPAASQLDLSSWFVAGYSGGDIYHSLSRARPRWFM

## alpha-interferon and ribavirin [reference compound]
HCV; HCV patients, combination therapy
  sustained efficacy, share of patients: 40%

## pegylated alpha-interferon
HCV; compared with unmodified alpha-interferon
  clinical results as monotherapy: superior to unmodified alpha-interferon

## O=C(O)c1ccc2c(C3CCCCC3)c3n(c2c1)CC=Cc1ncccc1-3
[1]
  IC50: > 1000 nM
HCV replicon; [2]
  EC50: 1000 to 10000 nM

## O=C(O)/C=C/c1ccc(NC(=O)C2(NC(=O)c3ccc4c(C5CCCCC5)c5n(c4c3)CC(=O)Nc3cccnc3-5)CCCC2)cc1
[1]
  IC50: 100 to 1000 nM
HCV replicon; [2]
  EC50: < 100 nM

## O=C(O)c1ccc2c(C3CCCCC3)c3n(c2c1)CC(C(=O)N1CCCC(O)C1)Cc1ccccc1-3 (centres unmarked) [drawing 121]
[1]
  IC50: 100 to 1000 nM
HCV replicon; luciferase method, read-out: EC50
  EC50: 100 to 1000 nM

## CC(C)(C)OC(=O)N1/C=C\CCn2c(c(C3CCCCC3)c3ccc(C(=O)O)cc32)-c2ccccc21
[1]
  IC50: > 1000 nM
HCV replicon; [2]
  EC50: 1000 to 10000 nM

## CCOC(=O)/C=C/c1ccc(NC(=O)C2(NC(=O)c3ccc4c(C5CCCCC5)c5n(c4c3)CCCc3ncccc3-5)CCCC2)cc1
[1]
  IC50: > 1000 nM
HCV replicon; [2]
  EC50: < 100 nM

## COC(=O)c1ccc2c(C3CCCCC3)c3n(c2c1)CC(C(=O)N1CCOCC1)=Cc1ccccc1-3
[1]
  IC50: > 1000 nM
HCV replicon; [2]
  EC50: 1000 to 10000 nM

## CN1C(=O)Cn2c(c(C3CCCCC3)c3ccc(C(=O)O)cc32)-c2ccccc21 [Example 22, 13-cyclohexyl-6,7-dihydro-6-oxo-5-methyl-5H-indolo[1,2-d][1,4]benzodiazepine-10-carboxylic acid]
[1]
  IC50: 100 to 1000 nM
HCV replicon; [2]
  EC50: 100 to 1000 nM

## COC(=O)c1ccc2c(C3CCCCC3)c3n(c2c1)C(O)c1ccccc1-3 (centres unmarked) [Example 8]
[1]
  IC50: > 1000 nM
HCV replicon; [2]
  EC50: 1000 to 10000 nM

## COC(=O)c1ccc2c(C3CCCCC3)c3n(c2c1)CC(C(=O)N1CCN(c2ccncc2)CC1)Cc1ccccc1-3 (centres unmarked)
[1]
  IC50: > 1000 nM
HCV replicon; [2]
  EC50: 100 to 1000 nM

## O=C(O)c1ccc2c(C3CCCCC3)c3n(c2c1)CC(C(=O)N1CCN(c2ccncc2)CC1)=Cc1ccccc1-3
[1]
  IC50: 100 to 1000 nM
HCV replicon; [2]
  EC50: 100 to 1000 nM

## O=C1Cn2c(c(C3CCCCC3)c3ccc(C(=O)NS(=O)(=O)C4CC4)cc32)-c2ccccc2N1
[1]
  IC50: 100 to 1000 nM
HCV replicon; [2]
  EC50: 100 to 1000 nM

## O=C(O)/C=C/c1ccc(NC(=O)C2(NC(=O)c3ccc4c(C5CCCCC5)c5n(c4c3)CCCc3ncccc3-5)CCCC2)cc1
[1]
  IC50: 100 to 1000 nM
HCV replicon; [2]
  EC50: < 100 nM

## CN1CCN(C(=O)C2Cc3ccccc3-c3c(C4CCCCC4)c4ccc(C(=O)O)cc4n3C2)CC1 (centres unmarked)
[1]
  IC50: 100 to 1000 nM
HCV replicon; [2]
  EC50: 100 to 1000 nM

## O=C(O)/C=C/c1ccc(NC(=O)C2(NC(=O)c3ccc4c(C5CCCCC5)c5n(c4c3)CC=Cc3ccccc3-5)CCCC2)cc1
[1]
  IC50: 100 to 1000 nM
HCV replicon; [2]
  EC50: < 100 nM

## O=C1Cn2c(c(C3CCCCC3)c3ccc(C(=O)O)cc32)-c2ncccc2N1 [Example 15, 13-cyclohexyl-6,7-dihydro-6-oxo-5H-pyrido[3′,2′:5,6][1,4]diazepino[1,7-a]indole-10-carboxylic acid]
[1]
  IC50: 100 to 1000 nM
HCV replicon; [2]
  EC50: 1000 to 10000 nM

## O=C(O)c1ccc2c(C3CCCCC3)c3n(c2c1)CC(C(=O)N1CCOCC1)=Cc1ccccc1-3
[1]
  IC50: 100 to 1000 nM
HCV replicon; Hepatitis C virus
  EC50: 100 to 1000 nM

## CN(C)S(=O)(=O)NC(=O)c1ccc2c(C3CCCCC3)c3n(c2c1)CC=Cc1ccccc1-3 [Example 19, 13-cyclohexyl-N-(dimethylaminosulfonyl)-7H-indolo[2,1-a][2]benzazepine-10-carboxamide]
[1]
  IC50: 100 to 1000 nM
HCV replicon; [2]
  EC50: 100 to 1000 nM

## O=C(O)c1ccc2c(C3CCCCC3)c3n(c2c1)CC(C(=O)N1CCC(N2CCCC2)CC1)Cc1ccccc1-3 (centres unmarked)
[1]
  IC50: 100 to 1000 nM
HCV replicon; [2]
  EC50: 100 to 1000 nM

From patent US7348425B2, “Inhibitors of HCV replication” (Bristol-Myers Squibb Company, priority 2004, dated 2008)
